Several values for one entry are separate records, joined by “and”; a condition that tells them apart may be missing. Equal values may be shown once.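 A five-concentration, 48-hour dose response in 96-well plates underlies each endpoint, interpolated linearly between surrounding concentrations. At the GI50, growth is halved. TGI marks complete inhibition of growth.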
Columns and labels:
Assay in all cases: NCI tumour cell line growth inhibition, 48 h
[1] = tested on: HCT-116 colon
[2] = tested on: SK-OV-3 ovarian
[3] = tested on: COLO 205 colon
[4] = tested on: 786-0 renal
[5] = tested on: SN12C renal
[6] = tested on: OVCAR-5 ovarian
[7] = tested on: RPMI-8226 leukemia
[8] = tested on: ACHN renal
[9] = tested on: MOLT-4 leukemia
[10] = tested on: NCI-H23 lung

## Cc1ncc(CCCN(C)C)cc1Nc1ncc2c(n1)-c1ccc(C(F)(F)F)cc1NC(=S)C2
[1]
  GI50: < 0.0176 µM
  TGI: 14.4 µM
[2]
  GI50: < 0.0155 µM
  TGI: 0.448 µM
[3]
  GI50: < 0.0111 µM
  TGI: < 0.0198 µM
[4]
  GI50: 0.0825 µM
  TGI: 21.6 µM
[5]
  GI50: 0.0952 µM
  TGI: 18.4 µM
[6]
  GI50: < 0.0237 µM
  TGI: > 51.1 µM
[7]
  GI50: 0.0434 µM
  TGI: 21.1 µM
[8]
  GI50: 0.0892 µM
  TGI: > 53.6 µM
[9]
  GI50: < 0.0156 µM
  TGI: 16.6 µM
[10]
  GI50: < 0.0138 µM
  TGI: 17.1 µM

## O=C1[C@@H]2C(c3ccccc3F)=NO[C@@H]2C(=O)N1c1ccc(Cc2ccc(N3C(=O)[C@H]4C(c5ccccc5F)=NO[C@H]4C3=O)cc2)cc1
[1]
  TGI: > 100 µM
[2]
  TGI: > 100 µM
[3]
  TGI: > 100 µM
[4]
  TGI: > 100 µM
[5]
  TGI: > 100 µM
[6]
  TGI: > 100 µM
[7]
  TGI: > 83.3 µM
[8]
  TGI: > 100 µM
[9]
  TGI: > 64.4 µM
[10]
  TGI: > 100 µM

## Cc1ccc(-c2nc3ccc(Cl)cc3c(=O)n2N2C(=O)CSC2c2ccccc2Cl)cc1 (stereo not given)
[1]
  GI50: 5.51 µM
  TGI: > 100 µM
[2]
  GI50: 2.89 µM
  TGI: 9.9 µM
[3]
  GI50: 9 µM
  TGI: > 100 µM
[4]
  GI50: 3.62 µM
  TGI: > 100 µM
[5]
  GI50: 11.8 µM
  TGI: > 100 µM
[6]
  GI50: > 100 µM
  TGI: > 100 µM
[7]
  GI50: > 100 µM
  TGI: > 100 µM
[8]
  GI50: 0.627 µM
  TGI: > 100 µM
[9]
  GI50: > 100 µM
  TGI: > 100 µM
[10]
  GI50: > 100 µM
  TGI: > 100 µM

## COc1cc(/C=C/c2ccc(OC)c(OC)c2)cc(OC)c1
[1]
  TGI: > 100 µM
[2]
  TGI: > 100 µM
[3]
  TGI: 39.7 µM
[4]
  TGI: 44.7 µM
[5]
  TGI: 96.6 µM
[6]
  TGI: > 100 µM
[7]
  TGI: > 100 µM
[8]
  TGI: 89.8 µM
[9]
  TGI: > 100 µM
[10]
  TGI: 65.3 µM

## CC(C)C[C@H](NC(=O)/C=C/Cn1ccc2ccccc2c1=O)B(O)O
[1]
  GI50: 2.95 µM
  TGI: 12.6 µM
[2]
  GI50: 10.5 µM
  TGI: 92.2 µM
[3]
  GI50: 5.93 µM
  TGI: > 100 µM
[4]
  GI50: 5.03 µM
  TGI: > 100 µM
[5]
  GI50: 6.32 µM
  TGI: > 100 µM
[6]
  GI50: 4.36 µM
  TGI: 39.8 µM
[7]
  GI50: 0.845 µM
  TGI: > 100 µM
[8]
  GI50: 3.33 µM
  TGI: > 100 µM
[9]
  GI50: 2.73 µM
  TGI: 12.5 µM
[10]
  GI50: 5.87 µM
  TGI: > 100 µM

## Clc1ccc(C=Nc2ccc3c(c2)Cc2ccccc2-3)c(Cl)c1
[1]
  TGI: > 100 µM
[2]
  TGI: > 100 µM
[3]
  TGI: > 100 µM
[4]
  TGI: > 100 µM
[5]
  TGI: > 100 µM
[6]
  TGI: > 100 µM
[7]
  TGI: > 100 µM
[8]
  TGI: > 100 µM
[9]
  TGI: > 100 µM
[10]
  TGI: > 100 µM

## N#Cc1cccnc1Cl
[1]
  TGI: > 100 µM
[2]
  TGI: > 100 µM
[3]
  TGI: > 100 µM
[4]
  TGI: > 100 µM
[5]
  TGI: > 100 µM
[6]
  TGI: > 100 µM
[7]
  TGI: > 100 µM
[8]
  TGI: > 100 µM
[9]
  TGI: > 100 µM
[10]
  TGI: > 100 µM

## O=C1CC2CCCC23CC2(CCN13)OCCO2 (stereo not given)
[1]
  TGI: > 100 µM
[2]
  TGI: > 100 µM
[3]
  TGI: > 100 µM
[4]
  TGI: > 100 µM
[5]
  TGI: > 100 µM
[6]
  TGI: > 100 µM
[7]
  TGI: > 100 µM
[8]
  TGI: > 100 µM
[9]
  TGI: > 100 µM
[10]
  TGI: > 100 µM

## COc1cc2[nH]c(C(=O)c3cc(OC)c(OC)c(OC)c3)c(N)c2cc1C#CC1CC1
[1]
  GI50: 2.06 µM
  TGI: 85.3 µM
[2]
  GI50: 3.42 µM
  TGI: > 100 µM
[3]
  GI50: 2.4 µM
  TGI: 8.34 µM
[4]
  GI50: 3.25 µM
  TGI: > 100 µM
[5]
  GI50: 7.69 µM
  TGI: > 100 µM
[6]
  GI50: 11.9 µM
  TGI: > 100 µM
[7]
  GI50: 3.28 µM
  TGI: 42.5 µM
[8]
  GI50: 1.3 µM
  TGI: > 100 µM
[9]
  GI50: 4.32 µM
  TGI: > 100 µM
[10]
  GI50: 7.12 µM
  TGI: > 100 µM

## Cc1ccc2[nH]c(O)c(N=Nc3ccc(S(N)(=O)=O)cc3)c2c1
[1]
  GI50: 8.87 µM
  TGI: > 25 µM
[2]
  GI50: 19.9 µM
  TGI: > 25 µM
[3]
  GI50: > 24.2 µM
  TGI: > 25 µM
[4]
  GI50: 23.5 µM
  TGI: > 25 µM
[5]
  GI50: 15.4 µM
  TGI: > 25 µM
[6]
  GI50: > 25 µM
  TGI: > 25 µM
[7]
  GI50: > 25 µM
  TGI: > 25 µM
[8]
  GI50: 9.74 µM
  TGI: > 25 µM
[9]
  GI50: > 21.5 µM
  TGI: > 25 µM
[10]
  GI50: > 21.5 µM
  TGI: > 25 µM

## CCCSc1nc(COC(=O)NC)c(COC(=O)NC)n1C
[1]
  TGI: > 100 µM
[2]
  TGI: > 100 µM
[3]
  TGI: > 100 µM
[4]
  TGI: > 100 µM
[5]
  TGI: > 100 µM
[6]
  TGI: > 100 µM
[7]
  TGI: 57.4 µM and > 94.9 µM
[8]
  TGI: 72.3 µM
[9]
  TGI: 56.6 µM and > 70 µM
[10]
  TGI: > 100 µM

## O=c1c2cc(Br)cc(Br)c2nc(CCCl)n1CCO
[1]
  TGI: > 100 µM
[2]
  TGI: > 100 µM
[3]
  TGI: > 100 µM
[4]
  TGI: > 100 µM
[5]
  TGI: > 100 µM
[6]
  TGI: > 100 µM
[7]
  TGI: > 100 µM
[8]
  TGI: > 100 µM
[9]
  TGI: > 100 µM
[10]
  TGI: > 100 µM
